Measured values taken from patent US6914045B2, “Glycopeptide antibiotics” (Wyeth Holdings Corporation, priority 2001, dated 2005).
≈ marks a conversion by molar mass, not a printed value. Where two headings read alike, the source gives them in different places.

Experiments:
Experiment in all cases: in vitro antibacterial evaluation, MIC by broth dilution
Assay type in all cases: cell-based
Enterococcus sp. = conditions: broth dilution, 18 hours at 35° C.
Procedure: (§1) Methods for in vitro Antibacterial Evaluation (Table 1)
(§2) The minimum inhibitory concentration (MIC), the lowest concentration of the antibiotic which inhibits growth of the test organism, is determined by the broth dilution method using Muller-Hinton II […] (Baltimore Biological Laboratories) following the recommendations of the National Committee for Clinical Laboratory Standards [Methods for dilution antimicrobial susceptibility tests for bacteria that grow aerobically, approved standard M7-A2, National Committee for Clinical Laboratory Standards, Villanova, Pa.].
(§3) An inoculum level of 5×10^5 CFU/mL, and a range of antibiotic concentrations (64-0.06 μg/mL) is used. […] The test organisms include a spectrum of Gram-positive bacteria comprised of Staphylococcus sp., Streptococcus sp. and Enterococcus sp. These organisms include recent clinical isolates that are resistant to methicillin, penicillin and/or vancomycin.

Staphylococcus sp. = conditions: broth dilution, 18 hours at 35° C.
Procedure: as §1, §2, §3

Streptococcus sp. = conditions: broth dilution, 18 hours at 35° C.
Procedure: as §1, §2, §3

Escherichia coli = conditions: Escherichia coli, broth dilution, 18 hours at 35° C.
Method in brief: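 Broth dilution MIC per NCCLS M7-A2 in Mueller-Hinton II medium, inoculum 5×10^5 CFU/mL, antibiotic range 64-0.06 μg/mL. MIC taken as lowest concentration inhibiting growth.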

MIC Enterococcus faecalis (ATCC 29212) (Enterococcus sp.; strain ATCC 29212): 64 µg/mL (≈ 63 µM) | MIC Enterococcus faecalis (GC 2242) (Enterococcus sp.; strain GC 2242): 64 µg/mL (≈ 63 µM) | MIC Enterococcus faecium (GC 2243) (Enterococcus sp.; strain GC 2243): 64 µg/mL (≈ 63 µM) | MIC Enterococcus faecalis (GC 2691) (Enterococcus sp.; strain GC 2691): 64 µg/mL (≈ 63 µM) | MIC Enterococcus faecalis (GC 3059) (Enterococcus sp.; strain GC 3059): >64 µg/mL | MIC Enterococcus faecalis (GC 4552) (Enterococcus sp.; strain GC 4552): 64 µg/mL (≈ 63 µM) | MIC Enterococcus faecalis (GC 4553) (Enterococcus sp.; strain GC 4553): 64 µg/mL (≈ 63 µM) | MIC Enterococcus faecalis (GC 4554) (Enterococcus sp.; strain GC 4554): 64 µg/mL (≈ 63 µM) | MIC Enterococcus faecium (GC 4556) (Enterococcus sp.; strain GC 4556): 32 µg/mL (≈ 31.5 µM) | MIC Enterococcus faecium (GC 4557) (Enterococcus sp.; strain GC 4557): 64 µg/mL (≈ 63 µM) | MIC Enterococcus avium (GC 4558) (Enterococcus sp.; strain GC 4558): 64 µg/mL (≈ 63 µM) | MIC Enterococcus faecalis (GC 6189) (Enterococcus sp.; strain GC 6189): >64 µg/mL | MIC (Enterococcus sp.; strain ATCC 29212, read-out: MIC Enterococcus faecalis (ATCC 29212)): 64 µg/mL (≈ 63 µM) | MIC (Enterococcus sp.; strain GC 2242, read-out: MIC Enterococcus faecalis (GC 2242)): 64 µg/mL (≈ 63 µM) | MIC (Enterococcus sp.; strain GC 2243, read-out: MIC Enterococcus faecium (GC 2243)): 64 µg/mL (≈ 63 µM) | MIC (Enterococcus sp.; strain GC 2691, read-out: MIC Enterococcus faecalis (GC 2691)): 64 µg/mL (≈ 63 µM) | MIC (Enterococcus sp.; strain GC 3059, read-out: MIC Enterococcus faecalis (GC 3059)): > 64 µg/mL | MIC (Enterococcus sp.; strain GC 4552, read-out: MIC Enterococcus faecalis (GC 4552)): 64 µg/mL (≈ 63 µM) | MIC (Enterococcus sp.; strain GC 4553, read-out: MIC Enterococcus faecalis (GC 4553)): 64 µg/mL (≈ 63 µM) | MIC (Enterococcus sp.; strain GC 4554, read-out: MIC Enterococcus faecalis (GC 4554)): 64 µg/mL (≈ 63 µM) | MIC (Enterococcus sp.; strain GC 4556, read-out: MIC Enterococcus faecium (GC 4556)): 32 µg/mL (≈ 31.5 µM) | MIC (Enterococcus sp.; strain GC 4557, read-out: MIC Enterococcus faecium (GC 4557)): 64 µg/mL (≈ 63 µM) | MIC (Enterococcus sp.; strain GC 4558, read-out: MIC Enterococcus avium (GC 4558)): 64 µg/mL (≈ 63 µM) | MIC (Enterococcus sp.; strain GC 6189, read-out: MIC Enterococcus faecalis (GC 6189)): > 64 µg/mL | MIC (Staphylococcus sp.; Staphylococcus, strain GC 4543, read-out: MIC Staphylococcus aureus-SMITH (GC 4543)): > 64 µg/mL | MIC (Staphylococcus sp.; Staphylococcus, strain GC 4547, read-out: MIC Coagulase Negative Staphylococcus (GC 4547)): 64 µg/mL (≈ 63 µM) | MIC (Staphylococcus sp.; Staphylococcus, strain GC 4548, read-out: MIC Coagulase Negative Staphylococcus (GC 4548)): > 64 µg/mL | MIC (Staphylococcus sp.; Staphylococcus, strain GC 4549, read-out: MIC Coagulase Negative Staphylococcus (GC 4549)): 32 µg/mL (≈ 31.5 µM) | MIC (Staphylococcus sp.; Staphylococcus, strain GC 4551, read-out: MIC Coagulase Negative Staphylococcus (GC 4551)): 64 µg/mL (≈ 63 µM) | MIC (Staphylococcus sp.; strain ATCC 29213, read-out: MIC Staphylococcus aureus (ATCC 29213)): > 64 µg/mL | MIC (Staphylococcus sp.; strain GC 1131, read-out: MIC Staphylococcus aureus (GC 1131)): > 64 µg/mL | MIC (Staphylococcus sp.; strain GC 3051, read-out: MIC Staphylococcus aureus (GC 3051)): > 64 µg/mL | MIC (Staphylococcus sp.; strain GC 3053, read-out: MIC Staphylococcus aureus (GC 3053)): > 64 µg/mL | MIC (Staphylococcus sp.; strain GC 4541, read-out: MIC Staphylococcus aureus (GC 4541)): > 64 µg/mL | MIC (Staphylococcus sp.; strain GC 4542, read-out: MIC Staphylococcus aureus (GC 4542)): > 64 µg/mL | MIC (Staphylococcus sp.; strain GC 4544, read-out: MIC Staphylococcus aureus (GC 4544)): > 64 µg/mL | MIC (Staphylococcus sp.; strain GC 4545, read-out: MIC Staphylococcus aureus (GC 4545)): > 64 µg/mL | MIC Staphylococcus aureus (ATCC 29213) (Staphylococcus sp.; strain ATCC 29213): >64 µg/mL | MIC Staphylococcus aureus (GC 3051) (Staphylococcus sp.; strain GC 3051): >64 µg/mL | MIC Staphylococcus aureus (GC 3053) (Staphylococcus sp.; strain GC 3053): >64 µg/mL | MIC Staphylococcus aureus (GC 4541) (Staphylococcus sp.; strain GC 4541): >64 µg/mL | MIC Staphylococcus aureus (GC 4542) (Staphylococcus sp.; strain GC 4542): >64 µg/mL | MIC Staphylococcus aureus (GC 4544) (Staphylococcus sp.; strain GC 4544): >64 µg/mL | MIC Staphylococcus aureus (GC 4545) (Staphylococcus sp.; strain GC 4545): >64 µg/mL | MIC Streptococcus pneumoniae (ATCC 6301) (Streptococcus sp.; strain ATCC 6301): 64 µg/mL (≈ 63 µM) | MIC Streptococcus pneumoniae (GC 1894) (Streptococcus sp.; strain GC 1894): 64 µg/mL (≈ 63 µM) | MIC Streptococcus pyogenes (GC 4563) (Streptococcus sp.; strain GC 4563): 32 µg/mL (≈ 31.5 µM) | MIC Streptococcus agalactiae (GC 4564) (Streptococcus sp.; strain GC 4564): 64 µg/mL (≈ 63 µM) | MIC Streptococcus pneumoniae (GC 4565) (Streptococcus sp.; strain GC 4565): >64 µg/mL | MIC (Streptococcus sp.; strain ATCC 6301, read-out: MIC Streptococcus pneumoniae (ATCC 6301)): 64 µg/mL (≈ 63 µM) | MIC (Streptococcus sp.; strain GC 1894, read-out: MIC Streptococcus pneumoniae (GC 1894)): 64 µg/mL (≈ 63 µM) | MIC (Streptococcus sp.; strain GC 4563, read-out: MIC Streptococcus pyogenes (GC 4563)): 32 µg/mL (≈ 31.5 µM) | MIC (Streptococcus sp.; strain GC 4564, read-out: MIC Streptococcus agalactiae (GC 4564)): 64 µg/mL (≈ 63 µM) | MIC (Streptococcus sp.; strain GC 4565, read-out: MIC Streptococcus pneumoniae (GC 4565)): > 64 µg/mL | MIC (Escherichia coli; ATCC25922, strain ATCC 25922, read-out: MIC Escherichia coli (ATCC 25922)): > 64 µg/mL | MIC (Escherichia coli; strain GC 4559, read-out: MIC Escherichia coli (GC 4559)): > 64 µg/mL | MIC (Escherichia coli; strain GC 4560, read-out: MIC Escherichia coli (GC 4560)): > 64 µg/mL
Compound: Cc1cccc(Oc2ccc(-c3nc4cc(C[C@@H]5NC(=O)[C@H](C(C)c6ccccc6)NC(=O)CNC(=O)[C@H](CO)NC(=O)[C@H](C(O)C6CNC(=N)N6)NC(=O)[C@H](C(O)C6CNC(=N)N6)NC5=O)ccc4o3)cc2)c1 (stereo partly drawn) [Example 41, Cyclo[3-[2-[4-(3-methylphenoxy)phenyl]benzoxazol-5-yl]alanyl-3-(2-iminoimidazolidin-4-yl)-seryl-3-(2-iminoimidazolidin-4-yl)serylserylglycyl-β-methylphenylalanyl]]
MIC (Staphylococcus sp.; strain GC 4546, read-out: MIC Staphylococcus haemolyticus (GC 4546)): 64 µg/mL (≈ 63 µM)
